{
  "source": "ChEMBL document CHEMBL1255215",
  "about": "“Synthesis and selective anticancer activity of organochalcogen based redox catalysts” (J Med Chem, 2010)",
  "key": {"[1]": {"assay": "Cytotoxicity against human B-CLL cells assessed as reduction in cell viability at 500 nM relative to untreated control", "assay_type": "functional"}, "[2]": {"test_system": "PBMC", "assay": "Induction of intracellular ROS level in human PBMC cells by flow cytometry", "assay_type": "functional, cell-based"}, "[3]": {"test_system": "B-CLL", "assay": "Induction of intracellular ROS level in human B-CLL cells by flow cytometry", "assay_type": "functional, cell-based"}, "[4]": {"assay": "Cytotoxicity against human B-CLL cells assessed as reduction in cell viability at 1 uM relative to untreated control", "assay_type": "functional"}, "[5]": {"test_system": "PBMC", "assay": "Cytotoxicity against human PBMC", "assay_type": "cell-based"}, "[6]": {"test_system": "MCF7", "assay": "Cytotoxicity against human MCF7 cells at 0.3 uM", "assay_type": "functional"}, "[7]": {"test_system": "B-CLL", "assay": "Cytotoxicity against human B-CLL cells assessed as reduction in cell viability", "assay_type": "functional, cell-based"}, "[8]": {"test_system": "A549", "assay": "Cytotoxicity against human A549 cells at 0.3 uM", "assay_type": "functional"}, "[9]": {"assay": "Cytotoxicity against mouse NIH/3T3 cells at 1.25 uM", "assay_type": "cell-based", "details": "nih3t3, 1.25 µM"}, "[10]": {"test_system": "HUVEC", "assay": "Cytotoxicity against HUVEC at 1.25 uM", "assay_type": "cell-based", "details": "human"}, "[11]": {"test_system": "K562", "assay": "Cytotoxicity against human K562 cells assessed as cell viability at 10 uM", "assay_type": "functional", "details": "read-out: Activity"}, "[12]": {"test_system": "A549", "assay": "Cytotoxicity against human A549 cells at 0.3 to 0.625 uM", "assay_type": "functional"}, "[13]": {"test_system": "B-CLL", "assay": "Induction of apoptosis in human B-CLL cells assessed as caspase3 activation by […]", "assay_type": "functional, cell-based"}, "[14]": {"test_system": "PBMC", "assay": "Induction of apoptosis in human PBMC cells assessed as caspase3 activation by […]", "assay_type": "functional, cell-based"}, "[15]": {"test_system": "HT-29", "assay": "Cytotoxicity against human HT-29 cells at 0.3 to 0.625 uM", "assay_type": "functional"}, "[16]": {"test_system": "MCF7", "assay": "Cytotoxicity against human MCF7 cells at 0.3 to 0.625 uM", "assay_type": "functional"}, "[17]": {"test_system": "B-CLL", "assay": "Cytotoxicity against human B-CLL cells assessed as reduction in cell viability at 10 uM", "assay_type": "functional, cell-based"}},
  "note": "Calls of active or inactive are those of the source. The calls are words filed in the database; no cut-off is given here.",
  "data": [
    {"smiles": "CC1=C([Te]c2ccccc2)C(=O)c2ccccc2C1=O", "values": [
      {"measurement": "Ratio", "setting": "[1]", "result": 3.17},
      {"measurement": "Activity", "setting": "[2]", "result": "inactive"},
      {"measurement": "Activity", "setting": "[3]", "result": "Active"},
      {"measurement": "Ratio", "setting": "[4]", "result": 5.03},
      {"measurement": "Activity", "setting": "[5]", "result": "Non-toxic"},
      {"measurement": "Activity", "setting": "[6]", "result": "<50", "unit": "%"},
      {"measurement": "Activity", "setting": "[7]", "result": "Active"},
      {"measurement": "Activity", "setting": "[8]", "result": "<50", "unit": "%"},
      {"measurement": "Activity", "setting": "[9]", "result": "< 50", "unit": "%"},
      {"measurement": "Activity", "setting": "[10]", "result": "< 50", "unit": "%"},
      {"measurement": "viability at 10 µM", "setting": "[11]", "result": 4.1, "unit": "%"}
    ]},
    {"smiles": "O=C1C([Se]c2ccccc2)=C([Se]c2ccccc2)C(=O)c2ccccc21", "values": [
      {"measurement": "Activity", "setting": "[5]", "result": "Non-toxic"},
      {"measurement": "Activity", "setting": "[7]", "result": "Active"}
    ]},
    {"smiles": "O=C1C([Te]c2ccccc2)=C([Te]c2ccccc2)C(=O)c2ccccc21", "values": [
      {"measurement": "Activity", "setting": "[12]", "result": "<50", "unit": "%"},
      {"measurement": "Activity", "setting": "[13]", "result": "Active"},
      {"measurement": "Activity", "setting": "[2]", "result": "inactive"},
      {"measurement": "Activity", "setting": "[3]", "result": "Active"},
      {"measurement": "Activity", "setting": "[5]", "result": "Non-toxic"},
      {"measurement": "Activity", "setting": "[14]", "result": "inactive"},
      {"measurement": "Activity", "setting": "[7]", "result": "Active"},
      {"measurement": "Activity", "setting": "[15]", "result": "<50", "unit": "%"},
      {"measurement": "Activity", "setting": "[16]", "result": "<50", "unit": "%"},
      {"measurement": "Activity", "setting": "[9]", "result": "< 50", "unit": "%"},
      {"measurement": "Activity", "setting": "[10]", "result": "< 50", "unit": "%"},
      {"measurement": "viability at 10 µM", "setting": "[11]", "result": 15, "unit": "%"}
    ]},
    {"smiles": "CCOC(C[Se]C1=C([Se]CC(OCC)OCC)C(=O)c2ccccc2C1=O)OCC", "values": [
      {"measurement": "viability at 10 µM", "setting": "[11]", "result": 8.6, "unit": "%"}
    ]},
    {"smiles": "O=C1C(Sc2ccccc2)=C(Sc2ccccc2)C(=O)c2ccccc21", "values": [
      {"measurement": "Activity", "setting": "[17]", "result": "Active"},
      {"measurement": "Activity", "setting": "[7]", "result": "Active"}
    ]},
    {"smiles": "O=C1C([Se]c2ccccc2)=C([Se]c2ccccc2)C(=O)c2c(O)ccc(O)c21", "values": [
      {"measurement": "Activity", "setting": "[5]", "result": "Toxic"},
      {"measurement": "Activity", "setting": "[17]", "result": "Active"},
      {"measurement": "Activity", "setting": "[7]", "result": "Active"}
    ]},
    {"smiles": "CC1=C([Te]c2ccc(O)cc2)C(=O)c2ccccc2C1=O", "values": [
      {"measurement": "Activity", "setting": "[7]", "result": "inactive"},
      {"measurement": "viability at 10 µM", "setting": "[11]", "result": 30, "unit": "%"}
    ]}
  ]
}
